Kd data for three compounds are collected here from PMC5071164 (Biochimica et biophysica acta, 2016).

Assay [1] deals with T1, Farnesoid X receptor (FXR) ligand binding domain (Homo sapiens, UniProt Q96RI1).
T1 sequence (Q96RI1 203-486): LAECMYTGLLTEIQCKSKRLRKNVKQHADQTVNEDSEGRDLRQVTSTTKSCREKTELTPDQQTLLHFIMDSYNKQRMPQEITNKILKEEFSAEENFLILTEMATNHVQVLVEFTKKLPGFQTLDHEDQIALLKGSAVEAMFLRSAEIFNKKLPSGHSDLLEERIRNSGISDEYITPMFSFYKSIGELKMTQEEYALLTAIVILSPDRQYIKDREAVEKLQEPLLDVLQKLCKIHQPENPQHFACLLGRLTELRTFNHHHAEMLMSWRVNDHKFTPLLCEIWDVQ
Briefly: Intrinsic tryptophan fluorescence quenching titration.

In assay [2] the target is T1, Farnesoid X receptor (FXR) ligand binding domain. The description is as above. This is another data set of the same source.

The structures appear in SMILES notation. Where two headings read alike, the source gives them in different places.

In the case of `COc1cc(O)c(CC=C(C)C)c(O)c1C(=O)/C=C/c1ccc(O)cc1` [XN, xanthohumol], in assay [1], the Kd came to 2680 ± 110 nM.

In assay [2], `COc1cc(O)c(CC=C(C)C)c2c1C(=O)CC(c1ccc(O)cc1)O2` (stereo not drawn) [IX, isoxanthohumol] had a dissociation constant Kd of 5920 ± 250 nM.

In the case of `CC(C)=CCc1c(O)cc(O)c2c1O[C@H](c1ccc(O)cc1)CC2=O` [8-PN, 8-prenylnaringenin], binding in assay [2] was characterised by a dissociation constant (Kd) of 2200 ± 50 nM.

As usually defined, the Kd is the free concentration of one partner at which half of the binding sites on the other are occupied at equilibrium, for simple one-to-one binding.
